Columns and labels:
[1] = test system: Hepatitis C virus; experiment: Antiviral activity against HCV genotype 1b; type: functional, organism-based, Hepacivirus hominis; details: subtype 1b
[2] = test system: Hepatitis C virus; experiment: Antiviral activity against HCV genotype 3a; type: functional, organism-based, Hepacivirus hominis; details: subtype 3a
[3] = test system: Hepatitis C virus; experiment: Antiviral activity against HCV; type: functional, organism-based, Hepacivirus hominis
[4] = biological target: T1, RNA-directed RNA polymerase (Hepacivirus hominis, UniProt O39930); experiment: Binding affinity to HCV NS5B polymerase
[5] = biological target: T1, RNA-directed RNA polymerase; experiment: Inhibition of HCV NS5B polymerase
[6] = biological target: T2, Hepatitis C virus serine protease, NS3/NS4A (Hepatitis C virus, UniProt A3EZI9+D2K2A8); experiment: Inhibition of HCV NS3/4a protease; type: protein-complex assay, Hepacivirus hominis
[7] = biological target: T2, Hepatitis C virus serine protease, NS3/NS4A; experiment: Inhibition of HCV NS3/4a protease using Ac-DE-Dap(QXL520)-EE-Abu-shi-[COO]AS-C(5-FAMsp)-NH2 as substrate after 15 mins; type: protein-complex assay, Hepacivirus hominis
[8] = biological target: T2, Hepatitis C virus serine protease, NS3/NS4A; experiment: Inhibition of HCV NS3/4a protease in presence Zn2+; type: protein-complex assay, Hepacivirus hominis
[9] = test system: Hepatitis C virus; experiment: Antiviral activity against HCV genotype 1a; type: functional, organism-based, Hepacivirus hominis; details: subtype 1a

T2 sequence (D2K2A8 whole entry): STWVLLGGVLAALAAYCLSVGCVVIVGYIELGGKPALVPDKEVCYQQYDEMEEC
T2 sequence (A3EZI9 whole entry): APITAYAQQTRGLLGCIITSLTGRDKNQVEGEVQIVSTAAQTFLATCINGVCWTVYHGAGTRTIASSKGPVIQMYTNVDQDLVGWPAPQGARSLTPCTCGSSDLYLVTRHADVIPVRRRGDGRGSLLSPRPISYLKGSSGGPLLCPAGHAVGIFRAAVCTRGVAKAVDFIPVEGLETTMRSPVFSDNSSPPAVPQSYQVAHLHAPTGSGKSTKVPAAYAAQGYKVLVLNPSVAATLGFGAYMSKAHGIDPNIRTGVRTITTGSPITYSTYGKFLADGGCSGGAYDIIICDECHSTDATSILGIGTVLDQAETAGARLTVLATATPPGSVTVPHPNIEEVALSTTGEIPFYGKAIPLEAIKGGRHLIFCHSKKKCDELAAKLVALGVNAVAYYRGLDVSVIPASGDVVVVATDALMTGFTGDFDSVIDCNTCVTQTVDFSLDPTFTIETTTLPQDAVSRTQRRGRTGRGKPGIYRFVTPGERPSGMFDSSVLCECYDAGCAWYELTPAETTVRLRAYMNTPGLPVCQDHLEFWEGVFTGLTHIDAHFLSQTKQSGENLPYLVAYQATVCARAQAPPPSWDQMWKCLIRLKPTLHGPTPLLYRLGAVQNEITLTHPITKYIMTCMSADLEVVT
T1 sequence (O39930 whole entry): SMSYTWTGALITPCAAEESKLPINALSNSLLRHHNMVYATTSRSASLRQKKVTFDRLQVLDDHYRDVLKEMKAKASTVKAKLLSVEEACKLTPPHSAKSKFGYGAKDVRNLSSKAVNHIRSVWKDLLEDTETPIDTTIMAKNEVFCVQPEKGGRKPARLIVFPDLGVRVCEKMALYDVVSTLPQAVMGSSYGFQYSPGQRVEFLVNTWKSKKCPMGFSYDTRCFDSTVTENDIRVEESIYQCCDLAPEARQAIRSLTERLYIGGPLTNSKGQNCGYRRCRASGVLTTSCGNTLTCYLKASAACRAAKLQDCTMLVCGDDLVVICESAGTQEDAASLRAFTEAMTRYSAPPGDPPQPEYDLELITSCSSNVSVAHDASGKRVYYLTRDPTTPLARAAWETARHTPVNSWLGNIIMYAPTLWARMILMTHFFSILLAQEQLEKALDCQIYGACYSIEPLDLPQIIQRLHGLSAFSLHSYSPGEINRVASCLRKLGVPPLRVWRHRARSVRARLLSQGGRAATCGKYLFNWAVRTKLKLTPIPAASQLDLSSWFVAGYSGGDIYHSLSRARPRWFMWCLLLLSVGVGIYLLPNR

SMILES: C=C[C@H]1C[C@]1(NC(=O)[C@@H]1C[C@@H]2CN1C(=O)[C@H](C(C)(C)C)NC(=O)O[C@@H]1C[C@H]1CCCCCc1c(nc3ccccc3c1OC1CC3CCC(C1)N3C)O2)C(=O)NS(=O)(=O)C1(C)CC1 (some centres undefined)
- EC50 [1]: 0.62 nM
- EC50 [2]: 0.26 nM

SMILES: CC(C)Cn1cnc2c(N)nc3ccccc3c21 [IMIQUIMOD]
- EC50 [3]: 1000 nM

SMILES: N#Cc1c(Cl)cc(Cl)cc1COc1cccc(C(=O)/C=C(\O)C(=O)O)c1
- IC50 [4]: 45000 nM

SMILES: COc1ccc2c(c1)C=C1Cn3c-2c(C2CCCCC2)c2ccc(cc23)C(=O)NS(=O)(=O)N(C)CCOCCN(C)C1=O [TMC-647055]
- EC50 [3]: 82 nM

SMILES: CCCC1(CC(=O)O)OCCC2c3c(CC)ccc(Cl)c3NC21 (centres undefined)
- IC50 [5]: 3000 nM

SMILES: CN(C)CCN1CCn2c(c(C3CCCCC3)c3ccc(C(=O)O)cc32)-c2ccccc2C1
- EC50 [3]: 140 nM

SMILES: COc1ccc2c(O[C@@H]3C[C@H]4C(=O)N[C@]5(C(=O)O)C[C@H]5/C=C\CCCCC[C@H](NC(=O)OC5CCCC5)C(=O)N4C3)cc(-c3csc(NC(C)C)n3)nc2c1
- EC50 [3]: 9.5 nM

SMILES: CC1COc2cc3c(-c4ccc[nH]c4=O)c(C(=O)NS(C)(=O)=O)n(Cc4cc(F)ccc4F)c3cc21 (centres undefined)
- IC50 [5]: 6 to 15 nM

SMILES: COc1ccc2c(c1)[C@H]1[C@@H](CCN1CCN(C)C)CCn1c-2c(C2CCCCC2)c2ccc(C(=O)O)cc21
- EC50 [3]: 29 nM

SMILES: COc1ccc2cc(O[C@@H]3C[C@@H](C(=O)NC4(C(=O)O)CC4)N(C(=O)[C@@H](NC(=O)[C@@H](NC(C)=O)C4CCCCC4)C(C)C)C3)cnc2c1
- IC50 [6]: 800 nM

SMILES: Cc1cc2c(-c3ccc[nH]c3=O)c(C(=O)NS(=O)(=O)C3CC3)n(Cc3cc(F)ccc3F)c2cc1F
- IC50 [5]: 8 nM

SMILES: CCCC[C@H](NC(=O)[C@@H]1[C@@H]2[C@H](CN1C(=O)[C@@H](NC(=O)NC1(CS(=O)(=O)C(C)(C)C)CCCCC1)C(C)(C)C)C2(C)C)C(=O)C(=O)NC1CC1
- Ki [7]: 6 nM
- EC50 [3]: 40 nM

SMILES: CC(=O)N[C@@H](C(=O)O)C(=O)N[C@@H](CCC(=O)O)C(=O)N[C@H](C(=O)N[C@H](C(=O)N1C[C@H](OCc2ccccc2)C[C@H]1C(=O)NC1(C(=O)O)CC1)C(C)C)C1CCCCC1
- IC50 [6]: 51 nM

SMILES: CN(C)C(=O)Cn1c(-c2ccccc2)c(C2CCCCC2)c2sc(C(=O)O)cc21
- EC50 [3]: 2900 nM

SMILES: CC(C)N1CC[C@@H](N2CCn3c(c(C4CCCCC4)c4sc(C(=O)O)cc43)-c3ccccc3C2)C1
- EC50 [3]: 150 nM

SMILES: Cn1c(Cc2nc3cc(C(N)=O)ccc3[nH]2)nc2ccc(C(=O)NC(CP(=O)(O)O)C(=O)O)cc21 (centres undefined)
- Ki [6]: 1000 nM
- Ki [8]: 27 nM

SMILES: CCN(CC)C1CCN(C(=O)Cn2c(-c3ccco3)c(C3CCCCC3)c3ccc(C(=O)NS(=O)(=O)N(C)C)cc32)CC1
- EC50 [3]: 120 nM

SMILES: Cn1c(-c2ccc(OCc3cc(N4CCCC4=O)ccc3N3CCOCC3)cc2)c(C2CCCCC2)c2sc(C(=O)O)cc21
- EC50 [3]: 52 nM

SMILES: O=C(N[C@@H](Cc1c[nH]c2ccc(O)cc12)c1cscn1)c1ccc2c(c1)nc(-c1ccco1)n2C1CCCCC1
- EC50 [3]: 1700 nM

SMILES: CS(=O)(=O)Nc1cccc(S(=O)(=O)NC(=O)c2c(-c3ccc[nH]c3=O)c3ccc(Cl)cc3n2Cc2ccnc(N)c2)c1
- EC50 [3]: 11 nM
- IC50 [5]: 39 nM

SMILES: CCCCn1cc(/C=C2\Oc3cc(O)cc(O)c3C2=O)c2ccccc21
- EC50 [3]: 2200 nM

SMILES: COC(=O)N[C@H](C(=O)N1CCC[C@H]1c1nc2ccc(-c3ccc(-c4ccc5nc([C@@H]6CCCN6C(=O)[C@@H](NC(=O)OC)C(C)C)[nH]c5c4)cc3)cc2[nH]1)C(C)C
- EC50 [3]: 0.83 nM

SMILES: Nc1cc(Cn2c(C(=O)O)c(-c3ccc[nH]c3=O)c3ccc(Cl)cc32)ccn1
- EC50 [3]: 4800 nM
- IC50 [5]: 53 nM

SMILES: O=C1Cn2c(c(C3CCCCC3)c3ccc(C(=O)O)cc32)-c2ccccc2N1
- EC50 [3]: 240 nM

SMILES: Cc1c(C(=O)O)sc2c(C3CCCCC3)c(-c3ccccc3)n(CC(=O)N(C)C3CCN(C(C)C)C3)c12 (centres undefined)
- EC50 [3]: 130 nM

SMILES: C/C(=C/c1cc(-c2ccc(OCc3cc(CN4CCC(O)CC4=O)ccc3-c3ccc(C#N)cc3)cc2)n(C2CCCCC2)n1)C(=O)O (centres undefined)
- EC50 [3]: 400 nM

SMILES: CCN(CC)C1CCN(C(=O)Cn2c(-c3ccccc3)c(C3CCCCC3)c3ccc(C(=O)O)cc32)CC1
- EC50 [3]: 800 nM

SMILES: CC(C)C[C@H](NC[C@H](CC(=O)O)NC(=O)[C@H](CC1CCCCC1)NC(=O)[C@@H]1CCCC[C@H]1C(=O)O)C(N)=O
- IC50 [6]: 15000 nM

SMILES: COC(=O)N[C@H](C(=O)N1C[C@H](C)C[C@@H]1c1nc2sc(-c3ccc(-c4ccc(-c5c[nH]c([C@@H]6[C@H](C)CCN6C(=O)[C@H](NC(=O)OC)C(C)C)n5)cc4)cc3)cc2[nH]1)C(C)C
- EC50 [9]: 0.017 nM
- EC50 [1]: 0.008 nM

SMILES: O=C(O)c1ccc2c(C3CCCCC3)c3n(c2c1)CCN(CCN1CCCCC1)c1ccccc1-3
- EC50 [3]: 400 nM

SMILES: CC[C@@H]1C[C@]1(NC(=O)[C@@H]1C[C@@H]2CN1C(=O)[C@H](C(C)(C)C)NC(=O)OCC(C)(C)CCCCc1cccc3c1CN(C3)C(=O)O2)C(=O)NS(=O)(=O)C1CC1
- IC50 [3]: 3 nM

SMILES: CN(C)CCCn1c(N)nc2ccc3c(c21)CC(CN(C)C)O3 (centres undefined)
- Kd [4]: 1700 nM

SMILES: O=C(O)c1ccc2c(C3CCCCC3)c3n(c2c1)CCOc1cc(OCc2cc(N4CCCC4=O)ccc2N2CCOCC2)ccc1-3
- EC50 [3]: 7.6 nM

SMILES: CC(C)C[C@H](NC(=O)[C@H](CC(=O)O)NC(=O)OC(C)C)C(=O)N[C@@H](CC(F)(F)F)C(=O)NCCc1ccc(C(=O)O)cc1Cl
- Ki [6]: 600 nM

SMILES: Nc1nc(C(F)(F)F)cc2c1[nH]c(=O)n2Cc1ccccc1
- EC50 [3]: 102000 nM

SMILES: O=C(NCCCc1ccccc1)c1nc2ccccc2c(=O)n1O
- IC50 [4]: 8800 nM

SMILES: COCCOc1nc(N)c2[nH]c(=O)n(Cc3ccccc3)c2n1
- EC50 [3]: 20000 nM

SMILES: COc1ccc2c(c1)C=C(c1c(C(=O)C3C4CCCC3COC4)cnn1-c1ccncc1C)Cn1c-2c(C2CCCCC2)c2ccc(C(=O)NS(=O)(=O)C(C)C)cc21 (centres undefined)
- EC50 [3]: 4 nM

SMILES: CN(C)CCCn1c(N)nc2ccccc21
- Kd [4]: > 100000 nM

SMILES: C=C[C@@H]1C[C@]1(NC(=O)[C@@H]1C[C@@H]2CN1C(=O)[C@H](C(C)(C)C)NC(=O)O[C@@H]1C[C@H]1CCCCCc1nc3ccc(OC)cc3nc1O2)C(=O)NS(=O)(=O)C1CC1 [GRAZOPREVIR ANHYDROUS]
- EC50 [3]: 9.5 nM

SMILES: CC(C)(C)OC(=O)N[C@H]1CCCCC/C=C\[C@@H]2C[C@@]2(C(=O)NS(=O)(=O)C2CC2)NC(=O)[C@@H]2C[C@@H](OC(=O)N3Cc4cccc(F)c4C3)CN2C1=O [DANOPREVIR]
- IC50 [7]: 0.2 to 3.5 nM
- EC50 [3]: 17.5 nM

SMILES: CN(C)CCN(C)[C@@H]1Cn2c(c(C3CCCCC3)c3ccc(C(=O)O)cc32)-c2ccccc2O1
- EC50 [3]: 38 nM

SMILES: CCc1nc2c(N)nc3ccccc3c2n1CCCCNS(C)(=O)=O [CPG-52852]
- EC50 [3]: 100000 nM

SMILES: CN(C)CC1COc2ccc3nc4n(c3c2C1)CC(CN(C)C)CN4 (centres undefined)
- Kd [4]: 720 nM

SMILES: CC(=O)N[C@@H](C(=O)O)C(=O)N[C@@H](CCC(=O)O)C(=O)N[C@H](C(=O)N[C@H](C(=O)N1C[C@H](OCc2ccccc2)C[C@H]1C(=O)NC(CS)C(=O)O)C(C)C)C1CCCCC1 (some centres undefined)
- IC50 [6]: 33 nM

SMILES: CC(=O)N[C@@H](C(=O)O)C(=O)N[C@@H](CCC(=O)O)C(=O)N[C@H](C(=O)N[C@@H](CCC(=O)O)C(=O)N[C@@H](CC1CCCCC1)C(=O)N[C@@H](CC(F)F)C(=O)O)C(c1ccccc1)c1ccccc1
- Ki [6]: 20 nM

SMILES: O=C(N[C@@H](Cc1c[nH]c2ccccc12)C(=O)O)c1ccc2c(c1)nc(-c1ccoc1)n2C1CCCCC1
- IC50 [4]: 19 nM

SMILES: Cc1ccc(NC(=O)c2c(NO)cc(-c3ccccc3)oc2=O)cc1
- EC50 [3]: 180 nM

SMILES: CC(=O)N[C@@H](C(=O)O)C(=O)N[C@@H](CCC(=O)O)C(=O)N[C@H](C(=O)N[C@@H](CCC(=O)O)C(=O)N[C@@H](CC1CCCCC1)C(=O)N[C@@H](CS)C(=O)O)C(c1ccccc1)c1ccccc1
- Ki [6]: 40 nM

SMILES: C=C[C@@H]1C[C@]1(NC(=O)[C@@H]1C[C@@H](Oc2ncc(OC)c3ccc(Cl)cc23)CN1C(=O)[C@@H](NC(=O)OC(C)(C)C)C(C)(C)C)C(=O)NS(=O)(=O)C1CC1
- EC50 [3]: 1 nM

SMILES: Cc1ccc2c(-c3ccc[nH]c3=O)c(C(=O)NS(=O)(=O)C3CC3)n(Cc3cc(F)ccc3F)c2c1
- EC50 [3]: 90 nM
- IC50 [5]: 5 nM

SMILES: CCc1ccc2c(-c3ccc[nH]c3=O)c(C(=O)NS(=O)(=O)C3CC3)n(Cc3cc([N+](=O)[O-])ccc3F)c2c1
- EC50 [3]: 1 nM

SMILES: COc1ccc2c(O[C@@H]3C[C@H]4C(=O)N[C@]5(C(=O)NS(=O)(=O)C6CC6)C[C@H]5/C=C/CCCCN(C)C(=O)[C@@H]4C3)cc(-c3nc(C(C)C)cs3)nc2c1C
- IC50 [7]: 3 to 28.2 nM

SMILES: O=C(O)C1C(c2ccccc2)c2ccccc2C(=O)N1O (centres undefined)
- IC50 [4]: 15700 nM

SMILES: Cn1c(-c2ccco2)c(C2CCCCC2)c2ccc(C(=O)N[C@@H](Cc3c[nH]c4ccc(O)cc34)c3cscn3)cc21
- EC50 [3]: 50 nM

SMILES: CC(=O)N(c1ccc(N2CCOCC2)c(COc2ccc(-c3nc4cc(C(=O)O)ccc4n3C3CCCCC3)c(F)c2)c1)C(C)C
- EC50 [3]: 270 nM

Reference: ChEMBL document CHEMBL4602603, “A review on HCV inhibitors: Significance of non-structural polyproteins” (Eur J Med Chem, 2019)
